This passage reports IC50 results from patent publication EP3345917A1, “ANTIPROTOZOAL COMPOUNDS” (Bacoba AG, priority 2017, dated 2018).

Each structure is given as a SMILES string. Non-standard residues stand in square brackets, D forms with d. Residues, ends and D or L forms follow the SMILES beside them. *: point of attachment. Benzenesulfonyl(4-F) = O=S(=O)(c1ccc(F)cc1)*; Hexenoyl(2E,4S-Me) = CC[C@H](C)/C=C/C(=O)*; Leu(3R-OH) = CC(C)[C@@H](O)[C@H](N)C(=O)O; NH((S)CH(Me)CH2NMe2) = C[C@@H](CN(C)C)N*; NH(2-morpholinoethyl) = C(CN1CCOCC1)N*; dGly(nOct) = CCCCCCCC[C@@H](N)C(=O)O; Gly(octyl) = CCCCCCCC[C@H](N)C(=O)O; X3 = O=C(c1coc(-c2ccccc2)n1)*; X5 = CN(C)[C@H]1CCCC[C@@H]1N*; NHCH2CH2NMe2 = CN(C)CCN*; Hexanoyl = CCCCCC(=O)*; X1 = CN(C)C1CCC(N*)CC1; Aib = CC(C)(N)C(=O)O; βAla = NCCC(=O)O

Data set [1] can be described thus: Cytotoxicity assay on L6-cells (Alamar Blue). The note with it: rat, Cytotox L6, Cytotoxicity against rat myoblast cells (L6).
Protocol: Tests were done in triplicate. IC50 values against the parasites as well as cytotoxic effects against rat myoblast (L6-cells) were determined by serial dilution and repeated twice.
After 68 h of incubation under humidified 5% CO2 atmosphere, 10 µl of the Alamar blue marker was added to all wells. The plates were incubated for an additional 2 h. […] The IC50S were calculated by Softmax Pro software (Molecular Devices Cooperation, Sunnyvale, CA). […] Cytotoxicity was measured against rat myoblast cells (Cytotox L6).
The test system of data set [2] is intracellular Leishmania donovani (L.don. InMac). Briefly: Intracellular Leishmania donovani assay (L.don. InMac). It is filed as cell-based. The settings on record: In vitro inhibition. The source says: (§1) Tests were done in triplicate.
In data set [3] the test system is Trypanosoma cruzi trypomastigote forms (Tulahuen strain). Briefly: Intracellular Trypanosoma cruzi assay in L6-cells, beta-galactosidase/CPRG readout. It counts as cell-based. The settings on record: In vitro inhibition, read-out: T.cruzi. Put shortly: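 Readout was β-galactosidase cleavage of CPRG, read photometrically at 540 nm after 2–6 h colour development, giving IC50 values. Parasites: LacZ-expressing Tulahuen C2C4 strain grown in rat L6 myoblasts; run in triplicate.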

Data set [4] concerns Axenically grown Leishmania donovani amastigotes (strain MHOM/ET/67/L82). Briefly: Axenic Leishmania donovani amastigote resazurin assay. It is filed as cell-based. The settings on record: In vitro inhibition, read-out: L.don. ax. The method in brief: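 IC50 values derive from resazurin fluorescence (ex 536 nm, em 588 nm), expressed relative to the negative control, after 2-4 hours of plate development. Axenic amastigotes of strain MHOM/ET/67/L82 were used; each test run in triplicate.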

Data set [5] deals with Trypanosoma brucei rhodesiense (STIB 900 strain). Briefly: Alamar Blue assay against Trypanosoma brucei rhodesiense grown in axenic medium. The settings on record: In vitro inhibition, read-out: T.b.rhod. It counts as cell-based. Put shortly: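 Alamar Blue-based IC50 determination, in triplicate, on axenically grown STIB 900 trypanosomes. Melarsoprol included as reference.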

The test system of data set [6] is Plasmodium falciparum. Briefly: 3H-hypoxanthine incorporation assay against Plasmodium falciparum. It counts as cell-based. The note with it: In vitro inhibition, read-out: P.falc NF5. As for the experimental part: as §1
IC50 values were calculated by linear interpolation.

Compound `CCCCCCCC[C@H](NC(=O)[C@@H]1CCCN1C(=O)/C=C/[C@@H](C)CC)C(=O)N[C@H](C(=O)NC(C)(C)C(=O)N[C@@H](CC(C)C)C(=O)N[C@@H](CC(C)C)C(=O)NC(C)(C)C(=O)NC(C)(C)C(=O)NCCC(=O)NCCN1CCOCC1)[C@H](O)C(C)C` [Compound 5569, (2S)-N-[(1S,2R)-2-hydroxy-3-methyl-1-[(1-methyl-1-{[(1S)-3-methyl-1-{[(1S)-3-methyl-1-{[1-methyl-1-({1-methyl-1-[(2-{[2-(morpholin-4-yl)ethyl]carbamoyl}ethyl)carbamoyl]ethyl}carbamoyl)ethyl]carbamoyl}butyl]carbamoyl}butyl]carbamoyl}ethyl)carbamoyl]butyl]-2-{[(2S)-1-[(2E,4S)-4-methylhex-2-enoyl]pyrrolidin-2-yl]formamido}decanamide] ({Hexenoyl(2E,4S-Me)}-P[Gly(octyl)][Leu(3R-OH)][Aib]LL[Aib][Aib][βAla]-{NH(2-morpholinoethyl)}) showed an IC50 at 70 h in data set [1] of 2420 nM. In addition, the IC50 in data set [2] stood at 107 nM; in data set [3], 143 nM; in data set [4], 3.8 nM; in data set [5], 1.7 nM; in data set [6] it was 17.9 nM.
Compound `CCCCCCCC[C@H](NC(=O)[C@@H]1CCCN1S(=O)(=O)c1ccc(F)cc1)C(=O)N[C@@H](CC(C)C)C(=O)NC(C)(C)C(=O)N[C@@H](CC(C)C)C(=O)N[C@@H](CC(C)C)C(=O)NC(C)(C)C(=O)NC(C)(C)C(=O)NCCC(=O)N[C@@H](C)CN(C)C` [Compound 5935, (2S)-N-[(1S)-1-[(1-{[(1S)-1-{[(1S)-1-{[1-({1-[(2-{[(2S)-1-(dimethylamino)propan-2-yl]carbamoyl}ethyl)carbamoyl]-1-methylethyl}carbamoyl)-1-methylethyl]carbamoyl}-3-methylbutyl]carbamoyl}-3-methylbutyl]carbamoyl}-1-methylethyl)carbamoyl]-3-methylbutyl]-2-{[(2S)-1-(4-fluorobenzenesulfonyl)pyrrolidin-2-yl]formamido}decanamide] ({Benzenesulfonyl(4-F)}-P[Gly(octyl)]L[Aib]LL[Aib][Aib][βAla]-{NH((S)CH(Me)CH2NMe2)}) yielded an IC50 at 70 h in data set [1] of 384 nM. The IC50 was under 33.5 nM in data set [2]; 33.5 nM in data set [3]; 14500 nM in data set [4]; 42400 nM in data set [5]; 47300 nM in data set [6].
In the case of `CCCCCCCC[C@@H](NC(=O)[C@H]1CCCN1C(=O)CCCCC)C(=O)N[C@H](CC(C)C)C(=O)NC(C)(C)C(=O)N[C@@H](CC(C)C)C(=O)N[C@@H](CC(C)C)C(=O)NC(C)(C)C(=O)NC(C)(C)C(=O)NCCC(=O)N[C@@H](C)CN(C)C` [Compound 5851, (2R)-N-[(1R)-1-[(1-{[(1S)-1-{[(1S)-1-{[1-({1-[(2-{[(2S)-1-(dimethylamino)propan-2-yl]carbamoyl}ethyl)carbamoyl]-1-methylethyl}carbamoyl)-1-methylethyl]carbamoyl}-3-methylbutyl]carbamoyl}-3-methylbutyl]carbamoyl}-1-methylethyl)carbamoyl]-3-methylbutyl]-2-{[(2R)-1-hexanoylpyrrolidin-2-yl]formamido}decanamide] (Hexanoyl-[dP][dGly(nOct)][dL][Aib]LL[Aib][Aib][βAla]-{NH((S)CH(Me)CH2NMe2)}), in data set [1], the IC50 at 70 h stood at 1210 nM. In addition, the IC50 turned out to be 241 nM in data set [2]; 1130 nM in data set [3]; 144 nM in data set [4]; 165 nM in data set [5]; 51.7 nM in data set [6].
On to `CCCCCCCC[C@H](NC(=O)[C@@H]1CCCN1C(=O)CCCCC)C(=O)N[C@@H](CC(C)C)C(=O)NC(C)(C)C(=O)N[C@@H](CC(C)C)C(=O)N[C@@H](CC(C)C)C(=O)NC(C)(C)C(=O)NC(C)(C)C(=O)NCCC(=O)NCCN(C)C` [Compound 5643, (2S)-N-[(1S)-1-[(1-{[(1S)-1-{[(1S)-1-{[1-({1-[(2-{[2-(dimethylamino)ethyl]carbamoyl}ethyl)carbamoyl]-1-methylethyl}carbamoyl)-1-methylethyl]carbamoyl}-3-methylbutyl]carbamoyl}-3-methylbutyl]carbamoyl}-1-methylethyl)carbamoyl]-3-methylbutyl]-2-{[(2S)-1-hexanoylpyrrolidin-2-yl]formamido}decanamide] (Hexanoyl-P[Gly(octyl)]L[Aib]LL[Aib][Aib][βAla]-NHCH2CH2NMe2), for which the IC50 at 70 h in data set [1] turned out to be 862 nM. The IC50 in data set [2] amounted to 107 nM; in data set [3] it was 89.8 nM; in data set [4], 3.6 nM; in data set [5] it was 4.9 nM; in data set [6] it was 3 nM.
The compound `CCCCCCCC[C@H](NC(=O)[C@@H]1CCCN1C(=O)CCCCC)C(=O)N[C@@H](CC(C)C)C(=O)NC(C)(C)C(=O)N[C@@H](CC(C)C)C(=O)N[C@@H](CC(C)C)C(=O)NC(C)(C)C(=O)NC(C)(C)C(=O)NCCC(=O)N[C@H]1CCCC[C@@H]1N(C)C` [Compound 5883, (2S)-N-[(1S)-1-[(1-{[(1S)-1-{[(1S)-1-{[1-({1-[(2-{[(1S,2S)-2-(dimethylamino)cyclohexyl]carbamoyl}ethyl)carbamoyl]-1-methylethyl}carbamoyl)-1-methylethyl]carbamoyl}-3-methylbutyl]carbamoyl}-3-methylbutyl]carbamoyl}-1-methylethyl)carbamoyl]-3-methylbutyl]-2-{[(2S)-1-hexanoylpyrrolidin-2-yl]formamido}decanamide] (Hexanoyl-P[Gly(octyl)]L[Aib]LL[Aib][Aib][βAla]-X5) yielded an IC50 at 70 h in data set [1] of 1480 nM. The IC50 in data set [2] was 131 nM; in data set [3] it was 460 nM; in data set [4] it was 19800 nM; in data set [5] it was 41300 nM; in data set [6], 25300 nM.
Take `CCCCCCCC[C@H](NC(=O)/C=C/[C@@H](C)CC)C(=O)N[C@H](C(=O)NC(C)(C)C(=O)N[C@@H](CC(C)C)C(=O)N[C@@H](CC(C)C)C(=O)NC(C)(C)C(=O)NC(C)(C)C(=O)NCCC(=O)N[C@@H](C)CN(C)C)[C@H](O)C(C)C` [Compound 5586, (2S)-N-[(1S,2R)-1-[(1-{[(1S)-1-{[(1S)-1-{[1-({1-[(2-{[(2S)-1-(dimethylamino)propan-2-yl]carbamoyl}ethyl)carbamoyl]-1-methylethyl}carbamoyl)-1-methylethyl]carbamoyl}-3-methylbutyl]carbamoyl}-3-methylbutyl]carbamoyl}-1-methylethyl)carbamoyl]-2-hydroxy-3-methylbutyl]-2-[(2E,4S)-4-methylhex-2-enamido]decanamide] ({Hexenoyl(2E,4S-Me)}-[Gly(octyl)][Leu(3R-OH)][Aib]LL[Aib][Aib][βAla]-{NH((S)CH(Me)CH2NMe2)}): the IC50 at 70 h in data set [1] came out at 1150 nM. Also, the IC50 in data set [2] is 104 nM; in data set [3], 108 nM; in data set [4], 4.7 nM; in data set [5] it was 6.6 nM; in data set [6], 18.8 nM.
Consider `CCCCCCCC[C@H](NC(=O)[C@@H]1CCCN1C(=O)CCCCC)C(=O)N[C@@H](CC(C)C)C(=O)NC(C)(C)C(=O)N[C@@H](CC(C)C)C(=O)N[C@@H](CC(C)C)C(=O)NC(C)(C)C(=O)NC(C)(C)C(=O)NCCC(=O)NC1CCC(N(C)C)CC1` (stereo partly drawn) [Compound 5881, (2S)-N-[(1S)-1-[(1-{[(1S)-1-{[(1S)-1-{[1-({1-[(2-{[4-(dimethylamino)cyclohexyl]carbamoyl}ethyl)carbamoyl]-1-methylethyl}carbamoyl)-1-methylethyl]carbamoyl}-3-methylbutyl]carbamoyl}-3-methylbutyl]carbamoyl}-1-methylethyl)carbamoyl]-3-methylbutyl]-2-{[(2S)-1-hexanoylpyrrolidin-2-yl]formamido}decanamide] (Hexanoyl-P[Gly(octyl)]L[Aib]LL[Aib][Aib][βAla]-X1), for which the IC50 at 70 h in data set [1] was 592 nM. For the same compound, the IC50 in data set [2] was determined as 42500 nM; in data set [3], 44 nM; in data set [4], 0.7 nM; in data set [5], 44200 nM; in data set [6] it was 0.2 nM.
Take `CCCCCCCC[C@H](NC(=O)c1coc(-c2ccccc2)n1)C(=O)N[C@@H](CC(C)C)C(=O)NC(C)(C)C(=O)N[C@@H](CC(C)C)C(=O)N[C@@H](CC(C)C)C(=O)NC(C)(C)C(=O)NC(C)(C)C(=O)NCCC(=O)N[C@@H](C)CN(C)C` [Compound 5943, (2S)-N-[(1S)-1-[(1-{[(1S)-1-{[(1S)-1-{[1-({1-[(2-{[(2S)-1-(dimethylamino)propan-2-yl]carbamoyl}ethyl)carbamoyl]-1-methylethyl}carbamoyl)-1-methylethyl]carbamoyl}-3-methylbutyl]carbamoyl}-3-methylbutyl]carbamoyl}-1-methylethyl)carbamoyl]-3-methylbutyl]-2-[(2-phenyl-1,3-oxazol-4-yl)formamido]decanamide] (X3-[Gly(octyl)]L[Aib]LL[Aib][Aib][βAla]-{NH((S)CH(Me)CH2NMe2)}): the IC50 at 70 h in data set [1] turned out to be 552 nM. Further, the IC50 in data set [2] is under 36.1 nM; in data set [3] it was 156 nM; in data set [4], 18700 nM; in data set [5], 0.5 nM; in data set [6], 15.3 nM.
